Experiments:
[1] = Fecal recovery; format: in vivo, Sprague Dawley rats; details: male, Sprague-Dawley, faeces; rat, oral gavage 1 mg/kg, collection time 48 h
Description: Three male Sprague Dawley rats were administered 1 mg/kg test compound by oral gavage. Feces were collected from study animals from 0-48 or 0-72 hours after dosing, dried by lyophilization, and homogenized. Replicate aliquots of 40-60 mg each were subjected to extraction/protein precipitation with 7:1 acetonitrile:water and centrifuged. Supernatants were diluted 1:10 in 50:50 acetonitrile:water prior to analysis by LC-MS/MS. Compound concentrations, determined by interpolation from a standard calibration curve prepared in blank feces matrix, were converted to the percentage of dosed material recovered by taking into account the total collected fecal matter. The percent recovery for each rat was reported as the mean of the calculations from replicate samples. The overall percent recovery (Fecal Recovery [%]) was reported as the mean percent recovery from three rats. Accurate quality control sample recoveries were confirmed in each run and extraction efficiency was periodically verified.

[2] = molecular target: T1, human NHE3 (Homo sapiens, UniProt P48764); assay: Cell-based assay of NHE-3 activity (human NHE3 inhibition assay); design: expressed in transfected cells; host or cells: Opossum kidney (OK) cells (ATCC), electroporated; details: OK cells with human NHE-3 gene, BCECF pH recovery, 0-30 μM test compound; read-out: Human NHE3 pIC50 (converted)
T1 sequence (P48764 26-834): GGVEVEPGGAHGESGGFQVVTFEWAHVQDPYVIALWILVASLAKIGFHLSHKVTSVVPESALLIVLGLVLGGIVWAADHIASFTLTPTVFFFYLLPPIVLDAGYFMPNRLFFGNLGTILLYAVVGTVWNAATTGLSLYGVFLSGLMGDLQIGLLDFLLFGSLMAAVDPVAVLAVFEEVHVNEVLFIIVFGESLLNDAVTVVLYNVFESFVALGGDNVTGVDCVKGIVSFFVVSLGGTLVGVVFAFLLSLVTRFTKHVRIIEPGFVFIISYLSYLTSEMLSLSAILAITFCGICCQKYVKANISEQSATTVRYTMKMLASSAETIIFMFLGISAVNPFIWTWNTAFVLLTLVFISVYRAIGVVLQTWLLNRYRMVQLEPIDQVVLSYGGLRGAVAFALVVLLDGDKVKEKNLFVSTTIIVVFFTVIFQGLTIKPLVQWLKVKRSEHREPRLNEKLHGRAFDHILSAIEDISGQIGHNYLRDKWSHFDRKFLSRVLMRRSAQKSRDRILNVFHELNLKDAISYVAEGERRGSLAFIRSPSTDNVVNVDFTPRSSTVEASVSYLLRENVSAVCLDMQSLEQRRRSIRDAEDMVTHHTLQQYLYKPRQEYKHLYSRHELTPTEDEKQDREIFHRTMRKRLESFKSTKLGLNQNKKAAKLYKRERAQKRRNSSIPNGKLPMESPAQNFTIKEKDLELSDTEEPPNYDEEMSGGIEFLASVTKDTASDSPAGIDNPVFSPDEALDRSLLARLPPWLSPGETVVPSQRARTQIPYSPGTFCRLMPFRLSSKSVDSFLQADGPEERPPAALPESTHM
Method in brief: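 Opossum kidney cells electroporated with rat or human NHE-3, loaded with 5 μM BCECF-AM in NH4Cl-HEPES pH 7.4 for 30 min at RT, then acidified 10 min in Na+-free choline HEPES. Na+-dependent pH recovery rates from BCECF fluorescence, averaged over ≥2 replicates, gave pIC50.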

[3] = molecular target: T1, human NHE3; assay: Cell-based assay of NHE-3 activity (persistent inhibition), human; details: PS120 fibroblasts stably expressing human NHE3, 60 min incubation then washout; for IC50: read-out: pIC50 (human Persistence assay) (converted)
Description: The ability of compounds to inhibit human and rat NHE-3-mediated Na^+-dependent H^+ antiport after application and washout was measured using a modification of the pH sensitive dye method described above. PS120 fibroblasts stably expressing human NHE3 were obtained from Mark Donowitz (Baltimore, Md.). Opossum kidney (OK) cells were obtained from the ATCC and propagated per their instructions. The rat NHE-3 gene was introduced into OK cells via electroporation, and cells were seeded into 96 well plates and grown overnight. Medium was aspirated from the wells, cells were washed once with NaCl-HEPES buffer (100 mM NaCl, 50 mM HEPES, 10 mM glucose, 5 mM KCl, 2 mM CaCl2, 1 mM MgCl2, pH 7.4), then overlayed with NaCl-HEPES buffer containing 0-30 μM test compound. After a 60 min incubation at room temperature, the test drug containing buffer was aspirated from the cells. Following aspiration, cells were washed once with NaCl-HEPES buffer without drug, then incubated for 30 min at 37° C. with NH4Cl-HEPES buffer (20 mM NH4Cl, 80 mM NaCl, 50 mM HEPES, 5 mM KCl, 2 mM CaCl2, 1 mM MgCl2, pH 7.4) containing 5 μM BCECF-AM. Cells were washed once with Ammonium free, Na^+-free HEPES (100 mM choline, 50 mM HEPES, 10 mM glucose, 5 mM KCl, 2 mM CaCl2, 1 mM MgCl2, pH 7.4) and incubated in the same buffer for 10 minutes at room temperature to lower intracellular pH. NHE-3-mediated recovery of neutral intracellular pH was initiated (10 min after compound washout) by addition of Na-HEPES buffer. […] Changes in intracellular pH were monitored using a FLIPR Tetra® (Molecular Devices, Sunnyvale, Calif.) by excitation at λex 439 to 505 nm, and measuring BCECF fluorescence at λem 538 nm. The initial rate of the fluorescence ratio change was used as a measure of NHE-mediated Na^+/H^+ activity, and reported as the change in fluorescence ratio per minute. Initial rates were plotted as the average 2 or more replicates, and pIC50 values were estimated using GraphPad Prism.

Structure (SMILES)	dose excreted [1] [%]	IC50 [2] [nM]	% inhibition (human Persistence assay) [3]	IC50 [3] [nM]
CN(C)[C@H]1Cc2c(Cl)cc(Cl)cc2[C@@H]1Oc1ccc(S(=O)(=O)NCCOCCOCCNC(=O)NCCCCNC(=O)NCCOCCOCCNS(=O)(=O)c2ccc(O[C@H]3c4cc(Cl)cc(Cl)c4C[C@@H]3N(C)C)cc2)cc1 [Example 1, (S,S)—N,N′-(10,17-dioxo-3,6,21,24-tetraoxa-9,11,16,18-tetraazahexacosane-1,26-diyl)bis(4-((1S,2S)-4,6-dichloro-2-(dimethylamino)-2,3-dihydro-1H-inden-1-yloxy)benzenesulfonamide)]	87.7	< 100	C (>70%)	< 100
O=C(NCCCCNC(=O)NCCOCCOCCNS(=O)(=O)c1ccc(O[C@H]2c3cc(Cl)cc(F)c3C[C@@H]2N2CC[C@@H](O)C2)cc1)NCCOCCOCCNS(=O)(=O)c1ccc(O[C@H]2c3cc(Cl)cc(F)c3C[C@@H]2N2CC[C@@H](O)C2)cc1 [Example 4, (S,S,R)—N,N′-(10,17-dioxo-3,6,21,24-tetraoxa-9,11,16,18-tetraazahexacosane-1,26-diyl)bis(4-((1S,2S)-6-chloro-4-fluoro-2-((R)-3-hydroxypyrrolidin-1-yl)-2,3-dihydro-1H-inden-1-yloxy)benzenesulfonamide)]	–	< 100	B (40-70%)	< 100
CN(C)[C@H]1Cc2c(Cl)cc(Cl)cc2[C@@H]1Oc1ccc(S(=O)(=O)NCCOCCOCCNC(=O)[C@H](O)[C@@H](O)C(=O)NCCOCCOCCNS(=O)(=O)c2ccc(O[C@H]3c4cc(Cl)cc(Cl)c4C[C@@H]3N(C)C)cc2)cc1 [Example 5, (2R,3R)—N1,N4-bis(2-(2-(2-(4-((1S,2S)-4,6-dichloro-2-(dimethylamino)-2,3-dihydro-1H-inden-1-yloxy)phenylsulfonamido)ethoxy)ethoxy)ethyl)-2,3-dihydroxysuccinamide]	–	< 100	C (>70%)	100 to 1000
O=C(NCCCCNC(=O)NCCOCCOCCNC(=O)Nc1cccc(O[C@H]2c3ccccc3C[C@@H]2N2CCCCC2)c1)NCCOCCOCCNC(=O)Nc1cccc(O[C@H]2c3ccccc3C[C@@H]2N2CCCCC2)c1 [Example 13, 1-{2-[2-(2-{[(3-{[(1S,2S)-2-(piperidin-1-yl)-2,3-dihydro-1H-inden-1-yl]oxy}phenyl)carbamoyl]amino}ethoxy)ethoxy]ethyl}-3-{4-[({2-[2-(2-{[(3-{[(1S,2S)-2-(piperidin-1-yl)-2,3-dihydro-1H-inden-1-yl]oxy}phenyl)carbamoyl]amino}ethoxy)ethoxy]ethyl}carbamoyl)amino]butyl}urea]	–	100 to 10000	A (NHE3 <40%)	> 1000
O=C(NCCCCNC(=O)NCCOCCOCCNS(=O)(=O)c1ccc(O[C@H]2c3ccccc3C[C@@H]2N2CCCCC2)cc1)NCCOCCOCCNS(=O)(=O)c1ccc(O[C@H]2c3ccccc3C[C@@H]2N2CCCCC2)cc1 [Example 14]	–	< 100	C (>70%)	> 1000
O=C(NCCCCNC(=O)NCCOCCOCCNS(=O)(=O)c1ccc(O[C@H]2c3cc(Cl)cc(Cl)c3C[C@@H]2N2CCCCC2)cc1)NCCOCCOCCNS(=O)(=O)c1ccc(O[C@H]2c3cc(Cl)cc(Cl)c3C[C@@H]2N2CCCCC2)cc1 [Example 15]	–	> 10000	C (>70%)	> 1000
O=C(NCCCCNC(=O)NCCOCCOCCOCCNS(=O)(=O)c1ccc(O[C@H]2c3ccccc3C[C@@H]2N2CCCCC2)cc1)NCCOCCOCCOCCNS(=O)(=O)c1ccc(O[C@H]2c3ccccc3C[C@@H]2N2CCCCC2)cc1 [Example 16]	–	< 100	B (40-70%)	> 1000
CN(C)[C@H]1Cc2ccccc2[C@@H]1Oc1ccc(S(=O)(=O)NCCOCCOCCNC(=O)NCCCCNC(=O)NCCOCCOCCNS(=O)(=O)c2ccc(O[C@H]3c4ccccc4C[C@@H]3N(C)C)cc2)cc1 [Example 20]	–	< 100	B (40-70%)	< 100
CN(C)[C@H]1Cc2ccc(Cl)cc2[C@@H]1Oc1ccc(S(=O)(=O)NCCOCCOCCNC(=O)NCCCCNC(=O)NCCOCCOCCNS(=O)(=O)c2ccc(O[C@H]3c4cc(Cl)ccc4C[C@@H]3N(C)C)cc2)cc1 [Example 21]	–	< 100	C (>70%)	< 100
CN(C)[C@H]1Cc2ccc(F)cc2[C@@H]1Oc1ccc(S(=O)(=O)NCCOCCOCCNC(=O)NCCCCNC(=O)NCCOCCOCCNS(=O)(=O)c2ccc(O[C@H]3c4cc(F)ccc4C[C@@H]3N(C)C)cc2)cc1 [Example 22]	–	< 100	A (NHE3 <40%)	> 1000
O=C(NCCCCNC(=O)NCCOCCOCCNS(=O)(=O)c1ccc(O[C@H]2c3cc(F)ccc3C[C@@H]2N2CCCCC2)cc1)NCCOCCOCCNS(=O)(=O)c1ccc(O[C@H]2c3cc(F)ccc3C[C@@H]2N2CCCCC2)cc1 [Example 23]	–	< 100	C (>70%)	100 to 1000
O=C(NCCCCNC(=O)NCCOCCOCCNS(=O)(=O)c1ccc(O[C@H]2c3cc(Cl)cc(F)c3C[C@@H]2N2CCCCC2)cc1)NCCOCCOCCNS(=O)(=O)c1ccc(O[C@H]2c3cc(Cl)cc(F)c3C[C@@H]2N2CCCCC2)cc1 [Example 24]	–	< 100	C (>70%)	< 100
CN(C)[C@H]1Cc2c(F)cc(Cl)cc2[C@@H]1Oc1ccc(S(=O)(=O)NCCOCCOCCNC(=O)NCCCCNC(=O)NCCOCCOCCNS(=O)(=O)c2ccc(O[C@H]3c4cc(Cl)cc(F)c4C[C@@H]3N(C)C)cc2)cc1 [Example 25]	–	< 100	C (>70%)	< 100
CN(C)[C@H]1Cc2c(Cl)cc(Cl)cc2[C@@H]1Oc1ccc(S(=O)(=O)NCCOCCOCCNC(=O)C(C)(C)C(=O)NCCOCCOCCNS(=O)(=O)c2ccc(O[C@H]3c4cc(Cl)cc(Cl)c4C[C@@H]3N(C)C)cc2)cc1 [Example 36]	–	< 100	C (>70%)	100 to 1000
